Here are results for one compound from ChEMBL document CHEMBL4665911, “Novel Arginase Inhibitors for Treating Cancer and Respiratory Inflammatory Diseases” (ACS Med Chem Lett, 2020).

The target of the assay is T1, Arginase-1 (Homo sapiens, UniProt P05089).
T1 sequence (P05089 whole entry): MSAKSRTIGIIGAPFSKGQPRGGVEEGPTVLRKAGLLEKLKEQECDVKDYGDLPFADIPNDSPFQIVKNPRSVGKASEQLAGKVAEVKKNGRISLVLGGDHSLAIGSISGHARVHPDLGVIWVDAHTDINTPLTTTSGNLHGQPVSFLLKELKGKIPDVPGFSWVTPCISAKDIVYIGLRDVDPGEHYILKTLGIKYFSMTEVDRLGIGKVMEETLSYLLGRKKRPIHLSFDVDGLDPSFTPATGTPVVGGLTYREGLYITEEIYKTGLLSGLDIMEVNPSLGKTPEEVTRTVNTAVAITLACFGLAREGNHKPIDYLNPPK
Briefly: Inhibition of human recombinant arginase 1 expressed in Escherichia coli using thioarginine by Ellman's assay.

In the case of `N[C@H]1CCN[C@@](CCCCB(O)O)(C(=O)O)C1`, the IC50 stood at 30 nM.

A word on the IC50: it is the concentration that inhibits the measured activity by half.
